Laboratory results: article PMC3107544 (Biochemistry, 2010)
Like-named read-outs stand apart in the source and are kept apart here. Marks after values point to notes of the source that are not given here.

Key:
[1] = biological target: T1, 5-HT2A receptor (Rattus norvegicus, UniProt P14842); format: cell-based; conditions: DOI 1μM, infected RSK2+/+ cortical neurons
[2] = system: 5-HT2A receptor; format: cell-based, rat; conditions: uninfected cortical neurons; DOI 1μM
[3] = biological target: T1, 5-HT2A receptor; experiment: cell-based; conditions: for EC50: pEC50 ± SEM
[4] = biological target: P2Y purinergic receptor; format: cell-based, RSK2−/− mouse embryonic fibroblasts
[5] = biological target: P2Y purinergic receptor; format: cell-based, RSK2−/− mouse embryonic fibroblasts; remark: listed apart in the source
[6] = biological target: P2Y purinergic receptor; format: cell-based, RSK2+/+ mouse embryonic fibroblasts
[7] = biological target: P2Y purinergic receptor; format: cell-based, RSK2+/+ mouse embryonic fibroblasts; remark: listed apart in the source
[8] = biological target: P2Y purinergic receptor; format: cell-based, RSK2+/+ mouse embryonic fibroblasts; remark: listed apart in the source
[9] = biological target: P2Y purinergic receptor; format: cell-based, RSK2−/− mouse embryonic fibroblasts; remark: listed apart in the source
[10] = system: P2Y purinergic receptor; experiment: FLIPR Tetra P2Y-mediated Ca^2+ responses in MEFs; format: cell-based, mouse; conditions: for EC50: read-out: potency (EC50)
[11] = biological target: 5-HT2A receptor (Mus musculus, UniProt P35363); conditions: RSK2+/+ mVSMCs; 100nM
Sequence of 5-HT2A receptor (Mus musculus, UniProt P35363) (P35363 whole entry): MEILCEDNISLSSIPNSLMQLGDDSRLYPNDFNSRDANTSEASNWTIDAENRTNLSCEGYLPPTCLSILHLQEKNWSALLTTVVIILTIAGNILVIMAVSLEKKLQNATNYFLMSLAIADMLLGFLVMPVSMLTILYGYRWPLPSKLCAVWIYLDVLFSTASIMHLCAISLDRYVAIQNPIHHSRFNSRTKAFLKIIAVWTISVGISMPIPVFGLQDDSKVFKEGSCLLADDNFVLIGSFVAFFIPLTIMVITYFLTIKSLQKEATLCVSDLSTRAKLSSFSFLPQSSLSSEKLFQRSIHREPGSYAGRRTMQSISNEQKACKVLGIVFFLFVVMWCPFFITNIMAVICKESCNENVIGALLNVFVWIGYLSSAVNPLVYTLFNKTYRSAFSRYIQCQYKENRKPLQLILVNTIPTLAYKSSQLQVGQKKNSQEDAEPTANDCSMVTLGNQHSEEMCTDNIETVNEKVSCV

[12] = system: 5-HT2A-mediated Ca^2+ responses; experiment: Growth factor attenuation of 5-HT2A-mediated Ca^2+ responses in MEFs; format: cell-based, mouse
[13] = system: RSK2; experiment: Immunoprecipitation and immunoblot of RSK2 activation; format: cell-based, mouse; conditions: for maximal activation of RSK2 (sum pixel intensity normalized to total RSK2): RSK2+/+ MEFs, 5 min, EGF 100ng/mL or IGF-1 10nM
[14] = biological target: IGF-1 R (Mus musculus, UniProt Q60751); experiment: Immunoblot of IGF-1 R phosphorylation; format: cell-based; conditions: RSK2+/+ MEFs; 10 nM
Sequence of IGF-1 R (Q60751 31-737 limits assumed): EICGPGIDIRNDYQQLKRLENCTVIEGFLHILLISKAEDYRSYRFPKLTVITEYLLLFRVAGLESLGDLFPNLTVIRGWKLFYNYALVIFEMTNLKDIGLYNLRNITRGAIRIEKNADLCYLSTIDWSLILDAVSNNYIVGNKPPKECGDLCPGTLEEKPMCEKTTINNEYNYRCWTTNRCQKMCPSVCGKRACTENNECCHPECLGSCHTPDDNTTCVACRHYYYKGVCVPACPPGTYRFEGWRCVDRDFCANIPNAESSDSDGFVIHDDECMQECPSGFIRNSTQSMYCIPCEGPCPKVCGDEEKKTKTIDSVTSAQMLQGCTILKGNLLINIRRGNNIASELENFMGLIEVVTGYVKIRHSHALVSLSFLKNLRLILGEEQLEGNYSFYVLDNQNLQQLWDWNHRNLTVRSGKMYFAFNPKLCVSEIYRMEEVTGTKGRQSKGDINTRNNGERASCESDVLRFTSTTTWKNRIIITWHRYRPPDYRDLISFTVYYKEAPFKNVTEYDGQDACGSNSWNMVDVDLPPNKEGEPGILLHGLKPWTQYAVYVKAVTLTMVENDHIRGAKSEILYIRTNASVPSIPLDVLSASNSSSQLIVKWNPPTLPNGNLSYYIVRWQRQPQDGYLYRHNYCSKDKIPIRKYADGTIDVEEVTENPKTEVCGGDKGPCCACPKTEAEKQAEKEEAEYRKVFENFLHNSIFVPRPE
Sequence of IGF-1 R (Q60751 742-1373 limits assumed): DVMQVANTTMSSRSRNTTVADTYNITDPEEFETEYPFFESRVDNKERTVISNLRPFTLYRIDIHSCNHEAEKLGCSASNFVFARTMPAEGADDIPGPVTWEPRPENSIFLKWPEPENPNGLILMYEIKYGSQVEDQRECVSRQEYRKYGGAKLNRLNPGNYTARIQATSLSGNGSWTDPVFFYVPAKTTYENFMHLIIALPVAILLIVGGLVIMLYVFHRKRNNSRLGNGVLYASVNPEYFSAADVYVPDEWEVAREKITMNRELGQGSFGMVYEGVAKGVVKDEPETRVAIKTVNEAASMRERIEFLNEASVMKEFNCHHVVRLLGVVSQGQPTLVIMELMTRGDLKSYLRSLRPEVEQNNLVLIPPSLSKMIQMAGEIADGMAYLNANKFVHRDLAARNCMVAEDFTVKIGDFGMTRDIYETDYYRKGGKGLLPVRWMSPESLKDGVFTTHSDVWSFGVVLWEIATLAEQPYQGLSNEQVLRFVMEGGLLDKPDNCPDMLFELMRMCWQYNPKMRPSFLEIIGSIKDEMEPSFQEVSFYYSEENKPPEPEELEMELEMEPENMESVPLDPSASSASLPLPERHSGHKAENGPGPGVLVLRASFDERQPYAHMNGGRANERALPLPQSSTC

[15] = system: 5-HT2A-mediated Ca^2+ responses; experiment: Growth factor attenuation of 5-HT2A-mediated Ca^2+ responses in mVSMCs; format: cell-based, mouse; conditions: saturating 5-HT 10μM, 60 min treatment
[16] = RSK2+/+ MEFs, EGF 100ng/mL 0 min (untreated)
[17] = RSK2+/+ MEFs, EGF 100ng/mL 60 min
[18] = RSK2−/− MEFs, EGF 100ng/mL 0 min (untreated)
[19] = RSK2−/− MEFs, EGF 100ng/mL 60 min

COc1cc(CC(C)N)c(OC)cc1I.Cl (racemic) [DOI, (±)-2,5-dimethoxy-4-iodoamphetamine hydrochloride]
Area under curve ([1]; EGF 100ng/mL 60 min): 20.9 +/− 1.2 ^b
Area under curve ([1]; NRG-1 100ng/mL): 28.6 +/− 1.7 ^b
Area under curve ([1]; RTK ligand None): 33.7 +/− 1.3
Ca^2+ response in uninfected neurons [2]: unresponsive

COc1ccc2[nH]cc(CCN(C)C)c2c1 [5-methoxy DMT, 5-methoxy-N,N-dimethyltryptamine]
EC50 [3, 16]: 25.7 nM
EC50 [3, 17]: 67.6 nM
EC50 [3, 18]: 89.1 nM
EC50 [3, 19]: 89.1 nM
Emax ([3]; read-out: Emax± SEM, %, RSK2+/+ MEFs, EGF 100ng/mL 0 min (untreated)): 86.7%
Emax ([3]; read-out: Emax± SEM, %, RSK2+/+ MEFs, EGF 100ng/mL 60 min): 79.6%
Emax ([3]; read-out: Emax± SEM, %, RSK2−/− MEFs, EGF 100ng/mL 0 min (untreated)): 80.4%
Emax ([3]; read-out: Emax± SEM, %, RSK2−/− MEFs, EGF 100ng/mL 60 min): 79.1%

Nc1ncnc2c1ncn2[C@@H]1O[C@H](COP(=O)(O)OP(=O)(O)OP(=O)(O)O)[C@@H](O)[C@H]1O [ATP, adenosine 5'-triphosphate]
RSK2−/− MEFs, 30 min, pEC50 ± SEM [4]: 5.34 +/− 0.09
RSK2−/− MEFs, 0 min, pEC50 ± SEM [5]: 5.37 +/− 0.09
RSK2+/+ MEFs, 60 min, pEC50 ± SEM [6]: 4.88 +/− 0.09 ^d
RSK2+/+ MEFs, 30 min, pEC50 ± SEM [7]: 4.95 +/− 0.06 ^d
RSK2+/+ MEFs, 0 min, pEC50 ± SEM [8]: 5.16 +/− 0.05
RSK2−/− MEFs, 60 min, pEC50 ± SEM [9]: 5.30 +/− 0.09

Nc1ncnc2c1ncn2[C@@H]1O[C@H](COP(=O)(O)OP(=O)(O)OP(=O)(O)O)[C@@H](O)[C@H]1O [ATP]
Emax± SEM, % [10, 16]: 99.7 +/− 2.0%
Emax± SEM, % ([10]; RSK2+/+ MEFs, EGF 100ng/mL 30 min): 88.4 +/− 2.5 ^d %
Emax± SEM, % [10, 17]: 82.5 +/− 3.2 ^d %
Emax± SEM, % [10, 18]: 98.6 +/− 3.3%
Emax± SEM, % ([10]; RSK2−/− MEFs, EGF 100ng/mL 30 min): 93.4 +/− 3.2%
Emax± SEM, % [10, 19]: 100 +/− 3.5%
EC50 ([10]; RSK2+/+ MEFs, 60 min EGF treatment): 13000 nM
EC50 ([10]; RSK2+/+ MEFs, untreated): 7000 nM

COc1cccc([C@H](O)C2CCN(CCc3ccc(F)cc3)CC2)c1OC [MDL100907]
block of 5-HT-elicited Ca^2+ responses [11]: blocked

EGF: human epidermal growth factor, canonical EGFR agonist
IC50 for attenuation of 5-HT2A-mediated Ca^2+ responses ([12]; RSK2+/+ MEFs): 1.3 ng/mL
peak Ca^2+ release ([12]; RSK2+/+ MEFs, 10nM 5-HT, 100ng/mL EGF 1hr, parallel control of IGF-1 experiments): 80.7 +/− 2.3%
maximal activation of RSK2 (sum pixel intensity normalized to total RSK2) [13]: 1.25 × 10^6 +/− 0.25 × 10^6

IGF-1: insulin-like growth factor 1, activates the IGF-1 R
activation of IGF-1 R (Tyr(P)1158/1162/1163) [14]: activated
maximal activation of RSK2 (sum pixel intensity normalized to total RSK2) [13]: 0.546 × 10^6 +/− 0.107 × 10^6

TGF-α: transforming growth factor-alpha, selective and potent EGFR agonist
IC50 for attenuation of 5-HT2A-mediated Ca^2+ responses ([12]; RSK2+/+ MEFs): 4.1 ng/mL

insulin: insulin, tested for attenuation of 5-HT2A receptor signaling in MEFs
effect on 5-HT2A receptor signaling ([12]; MEFs, data not shown): no effect
activation of RSK2 ([13]; MEFs, data not shown): modest activation

B1: PDGF-BB: human platelet-derived growth factor BB, PDGFR ligand (protein, UniProt P01127 82-190, looked up)
Platelet-derived growth …: SLGSLTIAEPAMIAECKTRTEVFEISRRLIDRTNANFLVWPPCVEVQRCSGCCNNRNVQCRPTQVQLRPVQVRKIEIVRKKPIFKKATVTLEDHLACKCETVAAARPVT
peak Ca^2+ release ([15]; RSK2+/+ cells): 67.0 +/− 8.5%
peak Ca^2+ release ([15]; RSK2−/− cells): 77.9 +/− 7.6%
